Results taken from patent US20200407717A1, “METHODS OF MODULATING ANTISENSE ACTIVITY” (Ionis Pharmaceuticals, Inc., priority 2018, published 2020).
e = 2'-O-(2-methoxyethyl) (MOE); d = 2'-deoxy (DNA)

Key:
EGF-EGFR signaling = test: EGFR signaling western blot (p-EGFR, p-ERK), A431 cells; assay type: cell-based; details: 2 μM for 16 hours
Description: In order to test the effects of a PS-ASO on EGFR signaling, A431 cells were incubated with compound no. 116847 or no PS-ASO compound for 16 hours. All cells were then treated with EGF prior to being subjected to the pulse-chase protocol described above. Cell lysates were run on a SDS-PAGE gel and analyzed by sequential western blot for phosphorylated EGFR (P-EGFR), total EGFR (T-EGFR), phosphorylated ERK (P-ERK), and total ERK (T-ERK) using the antibodies described above for EGFR, 4370 for P-ERK (Cell Signaling Technology), and 4695 for T-ERK (Cell Signaling Technology).
110080, 25690, 25699, 395251, or 395254 at 2 μM for 16 hours prior to carrying out the pulse-chase experiment described above.

EGFR = EGFR (Homo sapiens, UniProt P00533); test: Competitive NanoBRET binding assay; design: made in house; host or cells: HEK293 cells; details: Competitive BRET vs 10 nM AF594-labeled 766636; Table 6
Description: NanoBRET (bioluminescence resonance energy transfer) binding assays were performed as described in Vickers and Crooke. PLOS One, 11(8), (2016). An EGFR NLuc construct was prepared by first amplifying human EGFR from the full length cDNA clone (Origene RC217223) with forward PCR primer 5′-[…]-3′ (SEQ ID NO: 1) and reverse PCR primer 5′-[…] (SEQ ID NO: 2). The amplified product was ligated into the NheI and XhoI sites of the NanoLuc expression vector pFC32K Nluc CMV-Neo (Promega). Protein was expressed in HEK293 cells and isolated using Protein G magnetic beads. For competitive BRET, the Alexafluor594-labeled modified oligonucleotide 766636 was diluted into water in opaque white 96-well plates at 10 nM and competed with 0.1-10,000 nM of unlabeled modified oligonucleotide. […] of 2× binding buffer containing […] (relative luminescence units) beads/well was added and plates were shaken for 10 minutes at room temperature. Nanoluciferase activity and BRET were measured in a Glowmax Discover plate reader and EC50 values, shown in the tables below, were calculated using GraphPad Prism. For direct BRET, Alexafluor594 modified nucleotides were diluted at 0.1-10,000 nM and experiments were performed as described above.

Sequence | EGFR signaling (EGF-EGFR signaling) | EC50 (EGFR) [nM]
AGGAAGGAAGCTGGCGATCT (sugars from the 5' end e5 d10 e5, all phosphorothioate, methylation of C not given here) [compound 25690] | not be impacted | 1450
GGCATATGCAGATAATGTTC (sugars from the 5' end e5 d10 e5, all phosphorothioate, methylation of C not given here) [compound 395254] | not be impacted | 1240
